Data: ChEMBL document CHEMBL5325394, “What We Have Gained from Ibogaine: α3β4 Nicotinic Acetylcholine Receptor Inhibitors as Treatments for Substance Use Disorders” (J Med Chem, 2023)
Where a SMILES comes first, the peptide text is derived from it. Bridges are numbered along the chain shown (N, C = ends).

Key:
[1] = target: T1, Neuronal acetylcholine receptor; alpha3/beta4 (Homo sapiens, UniProt P30926+P32297); assay: Inhibition of alpha3beta4 nAChRs (unknown origin); assay type: protein-complex assay
T1 sequence (P30926 whole entry): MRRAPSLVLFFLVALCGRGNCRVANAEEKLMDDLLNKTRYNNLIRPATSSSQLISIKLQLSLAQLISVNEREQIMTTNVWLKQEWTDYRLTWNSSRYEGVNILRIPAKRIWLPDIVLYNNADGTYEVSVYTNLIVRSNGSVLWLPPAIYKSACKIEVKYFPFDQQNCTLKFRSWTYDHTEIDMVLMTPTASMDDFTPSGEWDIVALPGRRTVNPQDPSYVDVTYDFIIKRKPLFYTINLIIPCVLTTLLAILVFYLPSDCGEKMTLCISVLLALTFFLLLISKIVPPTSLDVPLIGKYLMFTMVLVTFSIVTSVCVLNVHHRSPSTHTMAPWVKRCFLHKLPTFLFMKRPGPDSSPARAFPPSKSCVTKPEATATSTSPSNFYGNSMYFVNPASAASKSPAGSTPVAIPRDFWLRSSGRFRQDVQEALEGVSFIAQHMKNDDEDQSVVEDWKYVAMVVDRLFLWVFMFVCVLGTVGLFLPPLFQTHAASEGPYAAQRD
T1 sequence (P32297 whole entry): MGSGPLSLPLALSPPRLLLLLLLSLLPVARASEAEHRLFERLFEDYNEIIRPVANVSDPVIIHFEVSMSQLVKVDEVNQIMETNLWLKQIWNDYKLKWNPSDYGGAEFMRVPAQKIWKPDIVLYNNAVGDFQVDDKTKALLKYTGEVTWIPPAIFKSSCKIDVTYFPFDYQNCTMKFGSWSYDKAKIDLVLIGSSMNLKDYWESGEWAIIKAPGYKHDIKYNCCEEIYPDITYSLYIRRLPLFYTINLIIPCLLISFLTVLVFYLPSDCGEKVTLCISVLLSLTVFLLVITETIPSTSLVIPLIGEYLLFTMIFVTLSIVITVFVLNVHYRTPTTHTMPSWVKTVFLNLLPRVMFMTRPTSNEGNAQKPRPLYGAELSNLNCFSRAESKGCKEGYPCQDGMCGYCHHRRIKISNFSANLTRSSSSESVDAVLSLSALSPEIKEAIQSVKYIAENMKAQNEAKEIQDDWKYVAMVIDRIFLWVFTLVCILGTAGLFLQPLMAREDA

[2] = target: T1, Neuronal acetylcholine receptor; alpha3/beta4; assay: Antagonist activity at nAChR alpha3beta4 in human SH-SY5Y cells assessed as increase in intracellular calcium level preincubated for 10 mins followed by nicotine addition measured after 30 mins by FLIPR assay; assay type: cell-based
[3] = target: T2, Neuronal acetylcholine receptor subunit alpha-7 (Homo sapiens, UniProt P36544); assay: Antagonist activity at nAChR alpha7 in human SH-SY5Y cells assessed as increase in intracellular calcium level preincubated for 10 mins followed by choline addition measured after 30 mins by FLIPR assay; assay type: cell-based
T2 sequence (P36544 whole entry): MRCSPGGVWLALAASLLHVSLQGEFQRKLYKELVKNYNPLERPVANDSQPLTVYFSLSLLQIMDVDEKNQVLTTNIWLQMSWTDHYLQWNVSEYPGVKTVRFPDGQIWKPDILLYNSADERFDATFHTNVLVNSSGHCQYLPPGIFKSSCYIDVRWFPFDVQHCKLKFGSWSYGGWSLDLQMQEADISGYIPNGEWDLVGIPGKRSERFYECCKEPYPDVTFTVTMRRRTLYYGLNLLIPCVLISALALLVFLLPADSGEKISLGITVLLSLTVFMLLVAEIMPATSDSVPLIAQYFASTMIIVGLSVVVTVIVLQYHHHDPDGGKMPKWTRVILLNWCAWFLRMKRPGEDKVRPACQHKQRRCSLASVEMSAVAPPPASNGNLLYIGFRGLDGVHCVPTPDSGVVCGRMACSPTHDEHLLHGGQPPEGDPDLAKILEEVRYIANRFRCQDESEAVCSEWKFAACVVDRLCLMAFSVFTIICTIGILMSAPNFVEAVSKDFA

[4] = target: T1, Neuronal acetylcholine receptor; alpha3/beta4; assay: Partial agonist activity at alpha3beta4 nAChR in HEK293 cells assessed as reduction in Ca+2 influx by FLIPR assy; assay type: cell-based
[5] = target: T3, Neuronal acetylcholine receptor; alpha4/beta2 (Homo sapiens, UniProt P17787+P43681); assay: Partial agonist activity at alpha4beta2 nAChR in HEK293 cells assessed as reduction in Ca+2 influx by FLIPR assy; assay type: cell-based
T3 sequence (P17787 whole entry): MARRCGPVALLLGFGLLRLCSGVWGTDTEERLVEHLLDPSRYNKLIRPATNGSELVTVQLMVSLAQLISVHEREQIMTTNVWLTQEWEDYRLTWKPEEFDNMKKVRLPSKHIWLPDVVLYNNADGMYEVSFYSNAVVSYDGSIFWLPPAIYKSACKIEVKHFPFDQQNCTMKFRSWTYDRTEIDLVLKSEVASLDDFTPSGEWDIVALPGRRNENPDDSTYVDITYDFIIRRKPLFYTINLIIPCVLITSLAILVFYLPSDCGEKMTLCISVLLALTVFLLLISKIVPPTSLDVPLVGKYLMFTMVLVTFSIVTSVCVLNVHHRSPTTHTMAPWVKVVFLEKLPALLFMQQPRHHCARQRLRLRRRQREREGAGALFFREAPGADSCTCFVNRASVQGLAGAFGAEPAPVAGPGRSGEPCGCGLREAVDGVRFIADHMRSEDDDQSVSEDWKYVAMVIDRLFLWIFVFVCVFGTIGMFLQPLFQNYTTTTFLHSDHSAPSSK
T3 sequence (P43681 whole entry): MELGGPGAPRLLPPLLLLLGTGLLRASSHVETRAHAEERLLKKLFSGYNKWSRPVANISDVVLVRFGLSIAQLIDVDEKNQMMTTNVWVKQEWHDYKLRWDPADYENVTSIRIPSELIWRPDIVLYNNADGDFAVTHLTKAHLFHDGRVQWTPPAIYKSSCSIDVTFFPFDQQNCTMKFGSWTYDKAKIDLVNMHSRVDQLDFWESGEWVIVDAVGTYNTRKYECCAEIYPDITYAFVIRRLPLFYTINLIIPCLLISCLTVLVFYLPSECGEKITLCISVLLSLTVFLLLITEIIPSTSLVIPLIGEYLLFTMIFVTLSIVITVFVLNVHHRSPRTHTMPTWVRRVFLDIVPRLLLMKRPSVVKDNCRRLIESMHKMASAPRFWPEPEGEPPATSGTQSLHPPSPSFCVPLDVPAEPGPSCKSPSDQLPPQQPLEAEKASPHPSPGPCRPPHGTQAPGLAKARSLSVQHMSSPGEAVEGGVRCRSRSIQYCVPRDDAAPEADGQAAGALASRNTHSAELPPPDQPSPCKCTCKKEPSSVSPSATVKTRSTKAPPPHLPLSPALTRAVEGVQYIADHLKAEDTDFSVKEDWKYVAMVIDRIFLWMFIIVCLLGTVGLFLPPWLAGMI

Mu-type opioid receptor = Mu-type opioid receptor (Bos taurus, UniProt P79350); assay: Displacement of [3H]-DAGO from calf cortex MOR receptor assessed as inhibition constant; assay type: tissue-based
Sequence of Mu-type opioid receptor (P79350 whole entry): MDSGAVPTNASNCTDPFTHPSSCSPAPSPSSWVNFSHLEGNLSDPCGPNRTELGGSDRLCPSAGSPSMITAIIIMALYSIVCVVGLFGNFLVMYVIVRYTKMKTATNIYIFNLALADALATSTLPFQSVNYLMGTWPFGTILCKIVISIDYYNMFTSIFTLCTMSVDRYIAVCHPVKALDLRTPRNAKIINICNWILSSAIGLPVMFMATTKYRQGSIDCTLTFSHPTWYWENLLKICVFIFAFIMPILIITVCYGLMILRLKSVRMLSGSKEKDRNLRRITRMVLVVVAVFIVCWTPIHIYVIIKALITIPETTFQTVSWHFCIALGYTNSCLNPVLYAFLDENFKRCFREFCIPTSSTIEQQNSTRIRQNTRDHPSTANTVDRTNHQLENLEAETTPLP

[6] = Displacement of [3H]-DPDPE from calf caudate nucleus DOR receptor assessed as inhibition constant; assay type: tissue-based, Bos taurus
[7] = Displacement of [3H]-GR-65,630 from 5-HT3 receptor in mouse NG-108 cells assessed as inhibition constant; assay type: cell-based; conditions: ng-108 cell
[8] = target: T4, Muscarinic acetylcholine receptor M1 (Bos taurus, UniProt Q8WMX0); assay: Displacement of [3H]-pirenzepine from calf cortex Muscarinic M1 receptor assessed as inhibition constant; assay type: tissue-based
T4 sequence (Q8WMX0 whole entry): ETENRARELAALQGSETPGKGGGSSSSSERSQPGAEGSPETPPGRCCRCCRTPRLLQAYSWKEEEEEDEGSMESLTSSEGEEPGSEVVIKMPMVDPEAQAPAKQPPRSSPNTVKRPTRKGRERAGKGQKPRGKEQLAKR

[9] = target: Sigma intracellular receptor 2 (Bos taurus, UniProt Q3MHW7); assay: Displacement of [3H]-DTG from calf hippocampus sigma 2 receptor assessed as inhibition constant; assay type: tissue-based
Sequence of Sigma intracellular receptor 2 (Q3MHW7 whole entry): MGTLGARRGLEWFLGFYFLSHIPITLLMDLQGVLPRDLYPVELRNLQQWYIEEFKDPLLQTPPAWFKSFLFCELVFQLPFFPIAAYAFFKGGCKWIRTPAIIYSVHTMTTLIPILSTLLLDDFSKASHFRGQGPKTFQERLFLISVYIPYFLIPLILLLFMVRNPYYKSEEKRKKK

[10] = Displacement of [3H]-BTX-B from bovine cortex sodium channel assessed as inhibition constant; assay type: tissue-based, Bos taurus
[11] = target: T1, Neuronal acetylcholine receptor; alpha3/beta4; assay: Antagonist activity at recombinant alpha3beta4 nAChR in HEK293 cells by voltage-clamp based electrophysiological method; assay type: cell-based
[12] = target: T3, Neuronal acetylcholine receptor; alpha4/beta2; assay: Antagonist activity at alpha4beta2 nAChR in HEK293 cells by voltage-clamp based electrophysiological method; assay type: cell-based
[13] = target: T1, Neuronal acetylcholine receptor; alpha3/beta4; assay: Antagonist activity at human alpha3beta4 nAChRs expressed in HEK293 cells assessed as inhibition of (+/-)-epibatidine-induced Ca+2 influx incubated for 5 mins by FLIPR analysis; assay type: cell-based
[14] = target: T1, Neuronal acetylcholine receptor; alpha3/beta4; assay: Displacement of [3H]imipramine from human alpha3beta4 nAChRs expressed in HEK293 cells assessed as inhibition constant incubated for 2 hrs by scintillation counter analysis; assay type: cell-based
[15] = target: T3, Neuronal acetylcholine receptor; alpha4/beta2; assay: Inhibition of nAChR alpha4beta2 receptor (unknown origin); assay type: protein-complex assay
[16] = target: T2, Neuronal acetylcholine receptor subunit alpha-7; assay: Inhibition of nAChR alpha7 receptor (unknown origin) assessed as inhibition of calcium flux

Which IC50 [1] does the source give for CC(C)C[C@@H]1NC(=O)[C@H](C(C)C)NC(=O)[C@H](C)NC(=O)[C@@H]2CSSC[C@H](NC(=O)CN)C(=O)N[C@@H](CSSC[C@@H](C(=O)O)NC(=O)[C@H](Cc3ccc(O)cc3)NC1=O)C(=O)N[C@@H](CO)C(=O)N[C@@H]([C@@H](C)O)C(=O)N1CCC[C@H]1C(=O)N1CCC[C@H]1C(=O)N2 (H-GCCSTPPCAVLYC-OH; disulfide 2-8, 3-13) here?
Its IC50 is 0.0277 µM.

Which IC50 [2] does the source give for CC[C@H](C)[C@@H]1NC(=O)[C@H](CC(N)=O)NC(=O)[C@@H]2CCCN2C(=O)[C@H](CC(N)=O)NC(=O)[C@H](CC(C)C)NC(=O)[C@H](C(C)C)NC(=O)[C@H](Cc2ccccc2)NC(=O)[C@@H]2CSSC[C@H](NC(=O)CNC(=O)[C@@H](N)CO)C(=O)N[C@@H](CSSC[C@@H](C(=O)O)NC1=O)C(=O)N[C@@H](CO)C(=O)N[C@@H](CC(N)=O)C(=O)N1CCC[C@H]1C(=O)N[C@@H](C)C(=O)N2 (H-SGCCSNPACFVLNPNIC-OH; disulfide 3-9, 4-17) here?
The IC50 was 0.41 µM.

And the IC50 [3]?
Its IC50 is greater than 100 µM.

With CC[C@H](C)[C@@H]1NC(=O)[C@H](CC(N)=O)NC(=O)[C@@H]2CCCN2C(=O)[C@H](CC(N)=O)NC(=O)[C@H](CC(N)=O)NC(=O)[C@H](C(C)C)NC(=O)[C@H](CCSC)NC(=O)[C@@H]2CSSC[C@H](NC(=O)CNC(=O)[C@@H](N)CO)C(=O)N[C@@H](CSSC[C@@H](C(=O)O)NC1=O)C(=O)N[C@@H](CO)C(=O)N[C@@H](CC(N)=O)C(=O)N1CCC[C@H]1C(=O)N[C@@H](C)C(=O)N2 (H-SGCCSNPACMVNNPNIC-OH; disulfide 3-9, 4-17) as the compound, how does the IC50 [2] read?
The IC50 was 0.44 µM.

And the IC50 [3]?
Its IC50 is 0.242 µM.

Which results are given for CC[C@H](C)[C@@H]1NC(=O)[C@H](CC(N)=O)NC(=O)[C@@H]2CCCN2C(=O)[C@H](CC(N)=O)NC(=O)[C@H](CC(C)C)NC(=O)[C@H](C(C)C)NC(=O)[C@H](CCCNC(=N)N)NC(=O)[C@@H]2CSSC[C@H](NC(=O)CNC(=O)[C@@H](N)CO)C(=O)N[C@@H](CSSC[C@@H](C(=O)O)NC1=O)C(=O)N[C@@H](CO)C(=O)N[C@@H](CC(N)=O)C(=O)N1CCC[C@H]1C(=O)N[C@@H](C)C(=O)N2 (H-SGCCSNPACRVLNPNIC-OH; disulfide 3-9, 4-17)?
IC50 [2]: 0.63 µM; IC50 [3]: 2.57 µM

Which IC50 [4] does the source give for FC(F)(F)c1ccc2c(c1)[C@@H]1CNC[C@H]2C1 here?
Its IC50 is 0.26 µM.

And the IC50 [5]?
The IC50 was 0.11 µM.

For COCC[C@H]1C[C@H]2CN3CCc4c([nH]c5ccc(OC)cc45)[C@](C(=O)OC)(C2)[C@H]13 (racemic), which Ki (Mu-type opioid receptor) is on record?
Its Ki is 0.0011 µM.

And the Ki [6]?
Its Ki is 0.0035 µM.

And the Ki [7]?
Its Ki is 0.0038 µM.

What about the Ki [8] of the same compound?
The Ki was 0.032 µM.

What about the Ki [9] of the same compound?
Its Ki is 0.013 µM.

And the Ki [10]?
Its Ki is 0.0064 µM.

And the IC50 [11]?
Its IC50 is 0.75 µM.

And the IC50 [12]?
The IC50 was greater than 20 µM.

And the IC50 [13]?
Its IC50 is 1.47 µM.

What about the Ki [14] of the same compound?
The Ki was 0.4 µM.

And the IC50 [15]?
Its IC50 is 6.3 µM.

What about the IC50 [16] of the same compound?
Its IC50 is 34.7 µM.
